The results in this text go back to patent publication US20170240592A1, “GADD45BETA/MKK7 INHIBITOR FOR THE TREATMENT OF A RESISTANT HAEMATOLOGICAL MALIGNANCY” (IMPERIAL INNOVATIONS LIMITED, priority 2014, published 2017).

As a reminder, the Vd is a proportionality between amount in the body and measured concentration, not a real space. A high value points to extensive tissue distribution.

One data set is described as follows: tolerability in mice. Format: in vivo. From the text: Values denote means±SD (n=3) or SEM (n=5), as indicated. MW, molecular weight.
Another data set is described as follows: FIG. 14. From the text: Table printed on a drawing sheet, FIG. 14
Values denote means±SD (n=3).
First reader's note: Each cell holds the value ± error and its unit together.

The target in another data set is T1, Gadd45β binding to MKK7 (Homo sapiens, UniProt O14733).
T1 construct: Full-length human (h)MKK7 was expressed as a protein fused to an N-terminal GST tag (GST-MKK7); made in house
T1 sequence (O14733 1-419): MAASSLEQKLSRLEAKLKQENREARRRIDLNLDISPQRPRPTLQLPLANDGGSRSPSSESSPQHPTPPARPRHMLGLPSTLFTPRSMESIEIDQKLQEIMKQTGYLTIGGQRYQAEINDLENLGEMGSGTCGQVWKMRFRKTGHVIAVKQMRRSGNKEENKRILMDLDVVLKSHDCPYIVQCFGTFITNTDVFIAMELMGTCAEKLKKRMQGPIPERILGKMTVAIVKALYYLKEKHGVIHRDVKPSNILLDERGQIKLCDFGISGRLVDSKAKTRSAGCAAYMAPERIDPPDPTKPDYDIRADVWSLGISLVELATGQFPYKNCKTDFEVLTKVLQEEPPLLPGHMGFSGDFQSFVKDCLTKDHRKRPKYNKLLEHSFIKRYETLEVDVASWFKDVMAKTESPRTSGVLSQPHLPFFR
In words: ELISA Gadd45β/MKK7 competition assay. Here is the method:
Values express the percentage of live cells present in the treated cultures relative to the live cells present in the respective untreated cultures and denote means±SD ([WM]; n=3). UT, untreated. […] Values express the percentage of inhibition of Gadd45β binding to MKK7 relative to the binding measured in the absence of peptide. […] Co-immunoprecipitations (IP) were performed using an anti-FLAG antibody (a-FLAG); western blots (WB) were developed using an anti-HA or an anti-MKK7 antibody, as shown.
Proteins were purified as described in Tornatore et al., 2008. Individual peptides were synthesised as reported in Sandomenico et al., 2012. […] Peptide identity and purity were determined using liquid chromatography-mass spectrometry (LC-MS). […]
Recombinant proteins were purified as described previously (Tornatore et al., 2008). Briefly, full-length human (h)GADD45β was expressed as a protein fused to a poly-histidine (His6) tag and purified by affinity chromatography using His-Trap columns (GE Healthcare). […] Full-length human (h)MKK7 was expressed as a protein fused to an N-terminal GST tag (GST-MKK7), purified using GST-Trap as above, and then used for ELISA analyses. […] The kinase domain (KD) of hMKK7 (amino acids 101-405) was expressed as a protein fused to an N-terminal His6 tag in E. coli (BL21[DE3] strain) using the pETDuet-1 vector (Novagen). […]
(In general: An ELISA detects its analyte on a solid surface through an enzyme-linked reagent.)

The next data set has as its system U266 cells. Briefly: [3H]thymidine incorporation assay, DTP3 and bortezomib as single agents or in combination, U266. To be noted: FA 0.5; DTP3 3 nM for 6 days, bortezomib last 48 hr; Chou-Talalay. (Uptake of a labelled nucleoside into DNA is a usual measure of proliferation.)

Protocol for U266 cells: Treatments with DTP3 were for 6 days; bortezomib was added to the cell cultures 48 hr prior to the measurement of cell viability. For the combination treatment, DTP3 was used at the concentrations of 3 nM in U266 cells and of 10 nM in KMS-12 cells, whereas bortezomib was used at increasing concentrations, as shown.
Viability data from the experiment shown in FIG. 12 were converted into values representing the fraction of cells affected (FA) equaling 0.5 in the drug-treated cultures compared with untreated cultures, and the interaction of DTP3 with bortezomib was analysed according to the Chou-Talalay method (Chou, 2006). Also shown are the drug concentrations giving the FA value of 0.5 and the description of the CI. […]
[^3H]Thymidine incorporation assays were performed using standard protocols (Griffiths and Sundaram, 2011). […] At 24, 72 or 144 hr, cells were incubated for an additional 16 hr with 0.037 MBq/well of [^3H]thymidine (Amersham), and then harvested onto glass fibre filter mats using a 96-well plate automated Tomtec cell harvester (Receptor Technologies) and analysed by liquid scintillation spectroscopy with a LKB Wallac Trilux Microbeta 3 b-counter (PerkinElmer). Values were expressed as the percentage of the counts per minute (cpm) measured in the treated cultures relative to the cpm measured in the respective untreated cultures. […]

Consider `CC(=O)N[C@H](Cc1ccc(O)cc1)C(=O)N[C@H](CCCNC(=N)N)C(=O)N[C@H](Cc1ccccc1)C(N)=O` [DTP3, Acetyl-Tyr-Arg-Phe-NH2], for which, in “tolerability in mice” (mice, single i.v. injection, s.c. injection or per os), the “tolerability after single administration” value was “excellent tolerability”. In the data set “tolerability in mice” (mouse, in vivo), the in-vivo tolerability entry is recorded as “excellent in-vivo tolerability”. In addition, the “tolerability after prolonged administration” value in the data set “tolerability in mice” (osmotic pumps, 28 days, 14.5 mg/kg/day) is “excellent tolerability and lack of any apparent side effects”. For the same molecule, in “FIG. 14”, the CL is 27.13 ± 4.09 mL/min/kg and the volume of distribution (Vd) turned out to be 2.80 ± 1.26 L/kg. Further, the Gadd45β/MKK7 inhibitor activity result on Gadd45β binding to MKK7 is given as “sub-nM”. In addition, the stability in vitro entry at Gadd45β binding to MKK7 (before and after 48-hr pre-incubation with human serum at 37° C.) is “high stability in vitro”. Moreover, in the data set with U266 cells, the “combination index (CI) with bortezomib” value worked out at 0.21.
